From patent US20090069317A1, “Insecticidal Methods Using 3-Amino-1,2-Benzisothiazole Derivatives” (BASF SE, priority 2005, published 2009)

Tests used:
[1] = system: Cotton Aphid (Aphis gossypii); test: Cotton aphid (Aphis gossypii) cotyledon dip test, mortality; assay type: in vivo; details: 120 h, cotton cotyledons dipped, mortality counts after 5 days, read-out: mortality in comparison with untreated controls
Source text: B.1 Cotton Aphid (Aphis gossypii)
(§1) The active compounds were formulated in 50:50 acetone:water and 100 ppm Kinetic® surfactant.
Cotton plants at the cotyledon stage (one plant per pot) were infested by placing a heavily infested leaf from the main colony on top of each cotyledon. The aphids were allowed to transfer to the host plant overnight, and the leaf used to transfer the aphids was removed. The cotyledons were dipped in the test solution and allowed to dry. After 5 days, mortality counts were made.

[2] = system: Green Peach Aphid (Myzus Persicae); test: Green peach aphid (Myzus persicae) pepper leaf dip test, mortality; assay type: in vivo; details: foliar, 120 h, pepper plant leaves dipped, aphid mortality after 5 days, read-out: mortality in comparison with untreated controls
Source text: B.2 Green Peach Aphid (Myzus Persicae)
as §1
Pepper plants in the 2nd leaf-pair stage (variety ‘California Wonder’) were infested with approximately 40 laboratory-reared aphids by placing infested leaf sections on top of the test plants. The leaf sections were removed after 24 hr. The leaves of the intact plants were dipped into gradient solutions of the test compound and allowed to dry. Test plants were maintained under fluorescent light (24 hour photoperiod) at about 25° C. and 20-40% relative humidity. Aphid mortality on the treated plants, relative to mortality on check plants, was determined after 5 days.

Row | Structure (SMILES) | mortality at 300 ppm [1] [%] | mortality at 300 ppm [2] [%]
1 | CC(C)N(C)C1=NS(=O)(=O)c2cccc(Cl)c21 [Compound 52] | > 86 | 
2 | COC(OC)C(C)N(C)C1=NS(=O)(=O)c2cccc(Cl)c21 (stereo not shown) [Compound 16] | > 86 | 
3 | CC(C)N(C)C1=NS(=O)(=O)c2cccc(F)c21 [Compound 73] | > 86 | > 86
4 | CCN(CC)C1=NS(=O)(=O)c2cccc(OC(F)F)c21 [Compound 31, (4-Difluoromethoxy-1,1-dioxo-1H-1λ^6-benzo[d]isothiazol-3-yl)-diethyl-amine] | > 86 | > 86
5 | CCON(C1=NS(=O)(=O)c2cccc(OC(F)F)c21)C(C)C [Compound 111] | > 86 | > 86
6 | C=CCN(C)c1nsc2cccc(Cl)c12 [Compound 45] | > 86 | 
7 | C=CCN(CC=C)C1=NS(=O)(=O)c2cccc(Cl)c21 [Compound 10] | > 86 | 
8 | C#CCON(C)C1=NS(=O)(=O)c2cccc(Cl)c21 [Compound 103] | > 86 | 
9 | CCN(C1=NS(=O)(=O)c2cccc(OC(F)F)c21)C(C)C [Compound 33] | > 86 | > 86
10 | COc1cccc2c1C(N(C(C)C)C1CC1)=NS2(=O)=O [Compound 55] | > 86 | 
11 | C=CCN(C)C1=NS(=O)(=O)c2cccc(F)c21 [Compound 69] | > 86 | 
12 | CCN(C)c1n[s+]([O-])c2cccc(OC)c12 (stereo not shown) [Compound 85] | > 86 | > 86
13 | COC(CN(C)c1nsc2cccc(Cl)c12)OC [Compound 46] | > 86 | 
14 | O=S1(=O)N=C(N(O)Cc2ccccc2)c2c(Cl)cccc21 [Compound 104] | > 86 | 
15 | C#CCN(C)C1=NS(=O)(=O)c2cccc(F)c21 [Compound 66] | > 86 | 
16 | COC(CN(C)C1=NS(=O)(=O)c2cccc(Cl)c21)OC [Compound 17] | > 86 | 
17 | CCN(CC)C1=NS(=O)(=O)c2c(F)ccc(OC)c21 [Compound 89] | > 86 | > 86
18 | CCN(CC(F)(F)F)C1=NS(=O)(=O)c2cccc(Cl)c21 [Compound 13] | > 86 | 
19 | CCN(CC)c1nsc2ccc(I)c(Cl)c12 [Compound 61] | > 86 | 
20 | CCN(C)C1=NS(=O)(=O)c2c(F)ccc(OC)c21 [Compound 91] | > 86 | > 86
21 | COc1cccc2snc(N(C)CC(C)C)c12 [Compound 83] | > 86 | > 86
22 | CC(C)N(C)C1=NS(=O)(=O)c2cccc(OC(F)F)c21 [Compound 41] | > 86 | > 86
23 | CC(C)N(O)C1=NS(=O)(=O)c2cccc(Cl)c21 [Compound 98] | > 86 | > 86
24 | CCC(C)N(O)C1=NS(=O)(=O)c2cccc(Cl)c21 (stereo not shown) [Compound 99] | > 86 | 
25 | C#CCN(C)C1=NS(=O)(=O)c2cccc(Cl)c21 [Compound 21] | > 86 | 
26 | CC(C)CN(C)C1=NS(=O)(=O)c2cccc(F)c21 [Compound 70] | > 86 | 

Row | Structure (SMILES) | mortality at 300 ppm [1] [%] | mortality at 300 ppm [2] [%]
27 | CCCN(C)c1nsc2cccc(Cl)c12 [Compound 87] | > 86 | > 86
28 | CCN(CC)C1=NS(=O)(=O)c2cccc(F)c21 [Compound 65] | > 86 | 
29 | CCN(C1=NS(=O)(=O)c2cccc(OC)c21)C(C)C [Compound 28] | > 86 | > 86
30 | CCON(CC)C1=NS(=O)(=O)c2cccc(Cl)c21 [Compound 106] | > 86 | 
31 | CN(C)C1=NS(=O)(=O)c2cccc(OC(F)F)c21 [Compound 32] | > 86 | > 86
32 | CCN(C)C1=NS(=O)(=O)c2cccc(OC)c21 [Compound 30, Ethyl-(4-methoxy-1,1-dioxo-1H-1λ^6-benzo[d]isothiazol-3-yl)-methyl-amine] | > 86 | > 86
33 | COC(C)CN(C)c1nsc2cccc(Cl)c12 (stereo not shown) [Compound 57] | > 86 | > 86
34 | CCCN(C)C1=NS(=O)(=O)c2cccc(Cl)c21 [Compound 19] | > 86 | > 86
35 | C=CCN(C)C1=NS(=O)(=O)c2cccc(OC(F)F)c21 [Compound 40] | > 86 | > 86
36 | COc1cccc2c1c(N(C)C)n[s+]2[O-] (stereo not shown) [Compound 94] | > 86 | > 86
37 | CCON(CC)C1=NS(=O)(=O)c2cccc(OC(F)F)c21 [Compound 112] | > 86 | > 86
38 | CN(CC(F)(F)F)C1=NS(=O)(=O)c2cccc(Cl)c21 [Compound 56] | > 86 | 
39 | CCN(C)c1nsc2ccc(I)c(Cl)c12 [Compound 60] | > 86 | 
40 | CCN(C)c1nsc2cccc(F)c12 [Compound 79] | > 86 | 
41 | C=CCN(C)C1=NS(=O)(=O)c2cccc(Cl)c21 [Compound 20] | > 86 | 
42 | CC(C)CN(C)c1nsc2cccc(Cl)c12 [Compound 44] | > 86 | 
43 | CC(C)N(C)c1nsc2cccc(Cl)c12 [Compound 86] | > 86 | > 86
44 | CN(C)C1=NS(=O)(=O)c2cccc(F)c21 [Compound 63] | > 86 | 
45 | COc1cccc2snc(N(C)Cc3ccccc3)c12 [Compound 92] | > 86 | > 86
46 | C#CCN(OCC)C1=NS(=O)(=O)c2cccc(Cl)c21 [Compound 107] | > 86 | 
47 | CON(C)C1=NS(=O)(=O)c2cccc(F)c21 [Compound 100] | > 86 | 
48 | COc1cccc2c1c(N(C)CC(C)C)n[s+]2[O-] (stereo not shown) [Compound 84] | > 86 | 
49 | CCN(C)c1n[s+]([O-])c2cccc(Cl)c12 (stereo not shown) [Compound 88] | > 86 | > 86
50 | CCON(C)C1=NS(=O)(=O)c2cccc(OC(F)F)c21 [Compound 110] | > 86 | > 86
51 | CN(c1nsc2cccc(Cl)c12)C1CCCC1 [Compound 93] | > 86 | > 86
52 | COC(C)CN(C)C1=NS(=O)(=O)c2cccc(Cl)c21 (stereo not shown) [Compound 18] | > 86 | 

Row | Structure (SMILES) | mortality at 300 ppm [1] [%] | mortality at 300 ppm [2] [%]
53 | C#CCN(C)C1=NS(=O)(=O)c2cccc(OC(F)F)c21 [Compound 39] | > 86 | > 86
54 | CCN(C)c1nsc2cccc(OC(F)F)c12 [Compound 80] | > 86 | > 86
55 | CCN(CC)c1nsc2cccc(Cl)c12 [Compound 58] | > 86 | > 86
56 | CCN(CC)c1nsc2cccc(OC)c12 [Compound 76] | > 86 | > 86
57 | CC(C)ON(C)C1=NS(=O)(=O)c2cccc(Cl)c21 [Compound 102] | > 86 | 
58 | CCN(CC)c1n[s+]([O-])c2cccc(Cl)c12 (stereo not shown) [Compound 74] | > 86 | > 86
59 | CN(C)c1n[s+]([O-])c2cccc(Cl)c12 (stereo not shown) [Compound 78] | > 86 | > 86
60 | C#CC(C)N(C1=NS(=O)(=O)c2cccc(Cl)c21)C(C)C (stereo not shown) [Compound 14] | > 86 | 
61 | COc1cccc2c1C(N(C)C)=NS2(=O)=O [Compound 54] | > 86 | 
62 | CC(C)CN(C)C1=NS(=O)(=O)c2cccc(OC(F)F)c21 [Compound 42] | > 86 | > 86
63 | COc1ccc(F)c2c1C(N(C)OC)=NS2(=O)=O [Compound 108] | > 86 | > 86
64 | COc1cccc2c1C(N1CCOCC1)=NS2(=O)=O [Compound 26] | > 86 | 
65 | CCN(CC)c1n[s+]([O-])c2cccc(OC)c12 (stereo not shown) [Compound 95] | > 86 | > 86
66 | CON(C)C1=NS(=O)(=O)c2cccc(OC(F)F)c21 [Compound 109] | > 86 | > 86
67 | C#CCN(C1=NS(=O)(=O)c2cccc(OC)c21)C(C)C [Compound 29] | > 86 | 
68 | CC(C)CN(C)C1=NS(=O)(=O)c2cccc(Cl)c21 [Compound 22, (4-Chloro-1,1-dioxo-1H-1λ^6-benzo[d]isothiazol-3-yl)-isobutyl-methyl-amine] | > 86 | 
69 | CC(C)ON(C1=NS(=O)(=O)c2cccc(Cl)c21)C(C)C [Compound 101] | > 86 | 
70 | O=S1(=O)N=C(N2CCCC2)c2c(Cl)cccc21 [Compound 1] | > 86 | 
71 | CC(C)N(C1=NS(=O)(=O)c2cccc(F)c21)C1CC1 [Compound 71] | > 86 | 
72 | C#CCON(C1=NS(=O)(=O)c2cccc(Cl)c21)C(C)C [Compound 105] | > 86 | 
73 | CC(C)CN(C)c1n[s+]([O-])c2cccc(Cl)c12 (stereo not shown) [Compound 77] | > 86 | 
74 | C#CCN(C1=NS(=O)(=O)c2cccc(F)c21)C(C)C [Compound 72] | > 86 | 
75 | COc1ccc(F)c2c1C(N(C)C)=NS2(=O)=O [Compound 90] | > 86 | 
76 | CCCN(C)C1=NS(=O)(=O)c2cccc(F)c21 [Compound 68] | > 86 | 
77 | CCCN(CCC)C1=NS(=O)(=O)c2cccc(F)c21 [Compound 67] | > 86 | 
78 | CC(C)N(C1=NS(=O)(=O)c2cccc(OC(F)F)c21)C1CC1 [Compound 35] | > 86 | 
